Patent publication US20240279302A1, “OLFACTORY RECEPTOR EXPRESSING METHOD AND RESPONSE MEASUREMENT METHOD” (Kao Corporation, priority 2021, published 2024)
Where two headings read alike, the source gives them in different places.

How the values were obtained:
Experiment in all cases: Luciferase assay, sulfur compounds
Format in all cases: cell-based
consensus OR2T1 = target: T1, consensus OR2T1 (Homo sapiens, UniProt O43869, C277R/D138G/I77L/L118F/L265I/L324F/N134D/Q276H/S299T)
T1 construct: expressed in transfected cells; host or cells: HEK293
T1 sequence (O43869 52-369 I77L/L118F/N134D/D138G/L265I/Q276H/C277R/S299T/L324F): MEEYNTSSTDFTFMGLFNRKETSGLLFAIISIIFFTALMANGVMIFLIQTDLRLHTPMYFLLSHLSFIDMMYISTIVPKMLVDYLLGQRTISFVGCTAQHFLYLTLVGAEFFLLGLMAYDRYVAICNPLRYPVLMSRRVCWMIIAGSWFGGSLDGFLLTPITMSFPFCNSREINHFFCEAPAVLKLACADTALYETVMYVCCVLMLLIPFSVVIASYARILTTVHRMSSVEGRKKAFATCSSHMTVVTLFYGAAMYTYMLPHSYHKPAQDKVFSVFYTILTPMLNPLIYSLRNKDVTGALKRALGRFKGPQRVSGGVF
Method: (§1) A reaction solution as to each consensus olfactory receptor prepared in Examples described above was prepared according to the composition shown in Table 4, left standing for 20 minutes in a clean bench, and then added to each well of a 96-well plate (Becton, Dickinson and Company). The original olfactory receptor was used as to OR4S2. Composition shown in Table 20 was used as to OR11H2 and OR4E2. Subsequently, 100 μL of HEK293 cells suspended in DMEM (Nacalai Tesque, Inc.) was inoculated at 2×10^5 cells/cm^2 to each well, and cultured for 24 hours in an incubator kept at 37° C. and 5% CO2. Cells expressing no olfactory receptor (Mock) were provided as a control.
(§2) The medium was removed from the cultures prepared in 1), and 75 μL of a test substance solution (methyl mercaptan (MeSH) (CAS: 74-93-1, Tokyo Chemical Industry Co., Ltd.), dimethyl sulfide (DMS) (CAS: 75-18-3, FUJIFILM Wako Pure Chemical Corp.), dimethyl disulfide (DMDS) (CAS: 624-92-0, Tokyo Chemical Industry Co., Ltd.), concentration range: 0 μM, 1 μM, 3 μM, 10 μM, 30 μM, 100 μM, and 300 μM, or dimethyl trisulfide (DMTS) (CAS: 3658-80-8, Tokyo Chemical Industry Co., Ltd.), concentration range: 0 μM, 0.1 μM, 0.3 μM, 1 μM, 3 μM, 10 μM, and 30 μM) prepared with a fresh medium was added thereto. Under a copper ion addition condition, the test substance solution was adjusted to contain 30 μM copper(II) chloride (FUJIFILM Wako Pure Chemical Corp.) in addition to the odorant. The cells were cultured for 4 hours in a CO2 incubator and the luciferase gene was expressed sufficiently in the cells. Luciferase activity was measured using Dual-Glo™ luciferase assay system (Promega Corp.) in accordance with the operation manual of the product. A luminescence value derived from firefly luciferase induced by test substance stimulation in each well of the 96-well plate was divided by a luminescence value derived from Renilla luciferase to calculate a value (fluc/hRluc) as a signal, which was then used in analysis. The signal under each transfection condition was normalized with the signal value (fluc/hRluc) under an odorant stimulation-free condition defined as 0% and the signal value (fluc/hRluc) by stimulation with 10 μM forskolin defined as 100%, and used as a response (%) in analysis.

consensus OR2T29 = target: T2, consensus OR2T29 (Homo sapiens, UniProt Q8NH02, A149V/A76M/C55S/F147L/I190K/I217V/K41M/L14S/L223S/L224F/L249M/L87M/M19V/M302T/M75V/R23S/R6W/S169T/S32C/S61T/T121A/T189M/V229I/V48I/V96I/W176R)
T2 construct: expressed in transfected cells; host or cells: HEK293
T2 sequence (Q8NH02 with tags, fused parts or gaps R6W/L14S/M19V/R23S/S32C/K41M/V48I/C55S/S61T/M75V/A76M/L87M/V96I/T121A/F147L/A149V/S169T/W176R/T189M/I190K/I217V/L223S/L224F/V229I/L249M/M302T): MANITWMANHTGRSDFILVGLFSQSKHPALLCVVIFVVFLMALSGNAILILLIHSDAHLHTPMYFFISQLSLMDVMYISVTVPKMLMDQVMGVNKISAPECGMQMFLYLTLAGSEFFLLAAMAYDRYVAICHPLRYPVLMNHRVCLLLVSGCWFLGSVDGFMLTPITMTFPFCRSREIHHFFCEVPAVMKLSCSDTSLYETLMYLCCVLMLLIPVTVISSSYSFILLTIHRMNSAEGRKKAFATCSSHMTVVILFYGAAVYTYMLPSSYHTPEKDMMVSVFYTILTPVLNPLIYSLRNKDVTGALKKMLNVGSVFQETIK
Method: as §1, §2

consensus OR4C15 = target: T3, consensus OR4C15 (Homo sapiens, UniProt Q8NGM1, A218G/A270V/E23K/G63A/I200A/I247V/I275T/L152F/L222F/L266F/M197L/N174D/N209I/N278T/Q295N/R137W/R299K/T258A/T88R/V55G/V87E/W233R)
T3 construct: Flag (N); Rho tag (N); expressed in transfected cells; host or cells: HEK293
T3 sequence (Q8NGM1 1-311 with the stated changes limits assumed): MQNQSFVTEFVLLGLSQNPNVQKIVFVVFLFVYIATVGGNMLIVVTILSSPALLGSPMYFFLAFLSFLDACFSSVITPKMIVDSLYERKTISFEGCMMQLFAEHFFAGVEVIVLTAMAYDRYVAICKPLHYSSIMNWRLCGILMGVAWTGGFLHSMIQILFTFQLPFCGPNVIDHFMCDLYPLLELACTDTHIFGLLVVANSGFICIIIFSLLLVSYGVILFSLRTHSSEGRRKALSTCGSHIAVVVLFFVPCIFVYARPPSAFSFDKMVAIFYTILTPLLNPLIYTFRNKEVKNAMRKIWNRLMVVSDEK
Method: as §1, §2

consensus OR4E2 = target: T4, consensus OR4E2 (Homo sapiens, UniProt Q8NGC2, A48T/F285L/G158V/H228Q/I116T/I142V/I197M/I47V/L183P/M219T/M25I/M36V/Q234R/R21W/S209T/S40L/S54R/T201S/T49I/T99A/V118M/V214L); details: for dose dependence of the response of consensus OR4E2 / response of consensus OR4E2: in the presence of a copper ion
T4 construct: Flag (N); Rho tag (N); expressed in transfected cells; host or cells: HEK293
T4 sequence (Q8NGC2 1-312 R21W/M25I/M36V/S40L/I47V/A48T/T49I/S54R/T99A/I116T/V118M/I142V/G158V/L183P/I197M/T201S/S209T/V214L/M219T/H228Q/Q234R/F285L limits assumed): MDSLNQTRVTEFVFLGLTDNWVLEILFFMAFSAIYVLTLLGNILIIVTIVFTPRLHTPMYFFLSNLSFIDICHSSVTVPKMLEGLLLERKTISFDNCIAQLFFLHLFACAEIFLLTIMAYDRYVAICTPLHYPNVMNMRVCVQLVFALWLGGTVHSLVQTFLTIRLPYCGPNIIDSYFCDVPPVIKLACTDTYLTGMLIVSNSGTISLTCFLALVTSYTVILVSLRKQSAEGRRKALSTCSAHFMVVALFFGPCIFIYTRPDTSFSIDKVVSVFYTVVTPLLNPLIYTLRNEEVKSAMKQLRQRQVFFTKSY
Method: as §1, §2

[1] = in the presence of a copper ion

EC50 (consensus OR4E2; consensus OR4E2, 30 μM CuCl2, read-out: EC50(μM) with 30 μM CuCl2) [µM]	Compound	response of consensus OR2T1 (consensus OR2T1; [1])	response of consensus OR2T29 (consensus OR2T29; [1])	response of consensus OR4C15 (consensus OR4C15; [1])	dose dependence of the response of consensus OR4E2 (consensus OR4E2)	response of consensus OR4E2 (consensus OR4E2)	EC50 (consensus OR2T1) [µM]	dose dependence of the response of consensus OR2T1 (consensus OR2T1; [1])	EC50 (consensus OR2T29) [µM]	dose dependence of the response of consensus OR2T29 (consensus OR2T29; [1])	EC50 (consensus OR4E2) [µM]	EC50 (consensus OR4C15) [µM]	dose dependence of the response of consensus OR4C15 (consensus OR4C15; [1])
33	CSSSC [dimethyl trisulfide]	responded	responded	responded	dose-dependent response	responded							
	CS [methyl mercaptan]	responded	responded	responded	dose-dependent response	responded	33	dose-dependent response	85	dose-dependent response	250		
	CSSC [dimethyl disulfide]	responded	responded	responded	dose-dependent response	responded					397	615	dose-dependent response
